Measurements published in US20240209011A1, “HETEROAROMATIC PHOSPHONIUM SALTS FOR TREATING CANCER” (FLORATEK PHARMA S.A., priority 2021, published 2024).

Legend:
Format in all cases: cell-based
breast PDX = assay: Activity against breast PDX; settings: growth of breast PDX; summary of Table 6
Description: (§1) PDX-derived cell cultures were obtained from tumors explanted from mice and isolated by mechanical and enzymatic dissociation. […] Cells were harvested and seeded in 96-wells plates at a density of 1.25 to 5×10^3 cells/well for cytotoxicity assays. Cells were incubated 48 h at 37° C. prior to addition of test molecules and vehicle (DMSO, 0.1%) at desired final concentrations. Cell viability was assessed before drugs' addition (To) and 5 days after test molecules addition by measuring ATP cell content using CellTiter-Glo® Luminescent Cell Viability Assay (Promega) according to the manufacturer's instructions. Luciferase activity was measured on a luminometer (PerkinElmer® EnVision™). Each concentration of compounds was tested in triplicate.
(§2) Viability was calculated as a percentage of ATP value compared to vehicle treated controls.
(§3) For PDX primary cell cultures, the tumour tissue was washed with PBS containing antibiotic-antimycotic and non-tumour tissue and necrotic tumour tissues were separated. The tumour tissue was transferred to a new dish and cut into 1-2 mm^3 fragments, resuspended in RPMI-1640 medium and centrifuged at 1,200 rpm for 6 min at room temperature. The pelleted material was resuspended with 15 mL of Tumour Cell Digestion Solution and incubated at 37° C. for 1 hour with agitation. Following further addition of media, centrifugation and passage through a […] cell strainer, the homogenous cell mixture was layered onto 15 mL of Ficoll-Paque PLUS in a 50 mL conical tube and centrifuged for 15 min at 1,600 rpm. The interface cells were collected, washed with media, separated by centrifugation at 1,200 rpm. The cell pellet was resuspended in serum free media supplemented with growth factors. 10,000 cells/wells were plated in a 96 well plate and incubated at 37° C., 5% CO2, 95% air and 100% relative humidity overnight. The cytotoxicity assay was conducted as above. IC50 values represent absolute IC50.

esophagus PDX = assay: Activity against esophagus PDX; settings: esophagus PDX growth; summary of Table 10
Description: as §1, §2, §3

kidney PDX = assay: Activity against kidney PDX; settings: kidney PDX growth; summary of Table 12
Description: as §1, §2, §3

CH-17-0091 = assay: PDX-derived cell culture cytotoxicity (CellTiter-Glo); settings: 120 h; bile duct PDX CH-17-0091; absolute IC50; 5 days
Description: as §1, §2, §3

ST-02-0173 = assay: as above; settings: 120 h; stomach PDX ST-02-0173; absolute IC50; 5 days
Description: as §1, §2, §3

LU-01-0027 = assay: as above; settings: 120 h; lung PDX LU-01-0027; absolute IC50; 5 days
Description: as §1, §2, §3

LU-01-0604 = assay: as above; settings: 120 h; lung PDX LU-01-0604; absolute IC50; 5 days
Description: as §1, §2, §3

ME-21-0028 = assay: as above; settings: 120 h; skin melanoma PDX ME-21-0028; absolute IC50; 5 days
Description: as §1, §2, §3

LY-24-0340 = assay: as above; settings: 120 h; lymphoma PDX LY-24-0340; absolute IC50; 5 days
Description: as §1, §2, §3

CO-04-0722 = assay: as above; settings: 120 h; colon PDX CO-04-0722; absolute IC50; 5 days
Description: as §1, §2, §3

LU-01-0025 = assay: as above; settings: 120 h; lung PDX LU-01-0025; absolute IC50; 5 days
Description: as §1, §2, §3

BR-05-0014E = assay: as above; settings: 120 h; breast PDX BR-05-0014E; absolute IC50; 5 days
Description: as §1, §2, §3

PC-07-0059 = assay: as above; settings: 120 h; pancreatic PDX PC-07-0059; absolute IC50; 5 days
Description: as §1, §2, §3

LU-01-0004 = assay: as above; settings: 120 h; lung PDX LU-01-0004; absolute IC50; 5 days
Description: as §1, §2, §3

KI-12-0062 = assay: as above; settings: 120 h; kidney PDX KI-12-0062; absolute IC50; 5 days
Description: as §1, §2, §3

CO-04-0700 = assay: as above; settings: 120 h; colon PDX CO-04-0700; absolute IC50; 5 days
Description: as §1, §2, §3

ES-06-0122 = assay: as above; settings: 120 h; esophagus PDX ES-06-0122; absolute IC50; 5 days
Description: as §1, §2, §3

CH-17-0098 = assay: as above; settings: 120 h; bile duct PDX CH-17-0098; absolute IC50; 5 days
Description: as §1, §2, §3

BR-05-0399 = assay: as above; settings: 120 h; breast PDX BR-05-0399; absolute IC50; 5 days
Description: as §1, §2, §3

ST-02-0322 = assay: as above; settings: 120 h; stomach PDX ST-02-0322; absolute IC50; 5 days
Description: as §1, §2, §3

LU-01-0010 = assay: as above; settings: 120 h; lung PDX LU-01-0010; absolute IC50; 5 days
Description: as §1, §2, §3

ST-02-0007 = assay: as above; settings: 120 h; stomach PDX ST-02-0007; absolute IC50; 5 days
Description: as §1, §2, §3

ES-06-0002 = assay: as above; settings: 120 h; esophagus PDX ES-06-0002; absolute IC50; 5 days
Description: as §1, §2, §3

HN-13-0020 = assay: as above; settings: 120 h; head and neck PDX HN-13-0020; absolute IC50; 5 days
Description: as §1, §2, §3

PC-07-0045 = assay: as above; settings: 120 h; pancreatic PDX PC-07-0045; absolute IC50; 5 days
Description: as §1, §2, §3

Structure (SMILES) | IC50 (breast PDX) [µM] | IC50 (esophagus PDX) [µM] | IC50 (kidney PDX) [µM] | IC50 (CH-17-0091) [µM] | IC50 (ST-02-0173) [µM] | IC50 (LU-01-0027) [µM] | IC50 (LU-01-0604) [µM] | IC50 (ME-21-0028) [µM] | IC50 (LY-24-0340) [µM] | IC50 (CO-04-0722) [µM] | IC50 (LU-01-0025) [µM] | IC50 (BR-05-0014E) [µM] | IC50 (PC-07-0059) [µM] | IC50 (LU-01-0004) [µM] | IC50 (KI-12-0062) [µM] | IC50 (CO-04-0700) [µM] | IC50 (ES-06-0122) [µM] | IC50 (CH-17-0098) [µM] | IC50 (BR-05-0399) [µM] | IC50 (ST-02-0322) [µM] | also measured
O=c1cc(-c2ccc(CCCC[P+](c3ccccc3)(c3ccccc3)c3ccccc3)cc2)oc2c3c(ccc12)OCO3.[Br-] [SND123, 4-[4-(6-oxo-[1,3]dioxolo[4,5-h]chromen-8-yl)phenyl]butyl-triphenylphosphonium bromide] | < 20 | < 20 | < 20 | 3 | 2.2 | 5.9 | 0.35 | 0.8 | 0.4 | 2.1 | 2.4 | 0.98 | 2.7 | 3 | 3 | 2.6 | 4.5 | 0.72 | 2.1 | 5.2 | IC50 (LU-01-0010): 0.8 µM; IC50 (ST-02-0007): 1.5 µM; IC50 (ES-06-0002): 2.9 µM; IC50 (HN-13-0020): 1.5 µM; IC50 (PC-07-0045): 4 µM
CCNC(=O)Oc1ccc2c(=O)cc(-c3ccc(CCCC[P+](c4ccccc4)(c4ccccc4)c4ccccc4)cc3)oc2c1OC(=O)NCC.[Br-] [SND124, 4-[4-[7,8-Bis(ethylcarbamoyloxy)-4-oxo-chromen-2-yl]phenyl]-butyltriphenylphosphonium bromide] | < 20 | < 20 | < 20 | 5.4 | 11.3 | 9.3 | 7.8 | 7.7 | 3.7 | 3.2 | 4.2 | 7.2 | 4.2 | 7.1 | 8.5 | 2.3 | 8.5 | 6.1 | 5.2 | 10.6 | IC50 (LU-01-0010): 7 µM; IC50 (ST-02-0007): 10.2 µM; IC50 (ES-06-0002): 5.6 µM; IC50 (HN-13-0020): 2 µM; IC50 (PC-07-0045): 7 µM
CCNC(=O)Oc1ccc2c(=O)cc(-c3ccc(CCCC[P+](c4ccccc4)(c4ccccc4)c4ccccc4)cc3)oc2c1O.[Br-] [SND126A, 4-[4-[7-(Ethylcarbamoyloxy)-8-hydroxy-4-oxo-chromen-2-yl]phenyl]butyltriphenylphosphonium bromide] | < 20 | < 20 | < 20 | 7.2 | 14.7 | 12 | 8.2 | 8 | 4.1 | 3.4 | 5.3 | 7.7 | 4.9 | 8.4 | 11 | 2.3 | 8.3 | 8.5 | 6.5 | 9.8 | IC50 (LU-01-0010): 7.6 µM; IC50 (ST-02-0007): 10.7 µM; IC50 (ES-06-0002): 9.3 µM; IC50 (HN-13-0020): 2.7 µM; IC50 (PC-07-0045): 7.7 µM
COc1c(O)ccc2c(=O)cc(-c3ccc(CCCC[P+](c4ccccc4)(c4ccccc4)c4ccccc4)cc3)oc12.[Br-] [SND140, (4-(4-(7-hydroxy-8-methoxy-4-oxo-4H-chromen-2-yl)phenyl)butyl)triphenylphosphonium bromide] | < 20 | < 20 | < 20 | > 50 | 9.8 | 16 | 7.7 | 1.1 | 4.1 | 11.6 | 10.5 | 10.4 | 20.4 | 11.7 | 16.8 | 12.8 | 13.5 | 4.98 | 6 | 13.3 | IC50 (LU-01-0010): 3 µM; IC50 (ST-02-0007): 12 µM; IC50 (ES-06-0002): 9.66 µM; IC50 (HN-13-0020): 9.1 µM; IC50 (PC-07-0045): 13.2 µM
